The values that follow come from patent publication US12459957B2, “Therapeutic compounds and methods” (GENENTECH, INC., priority 2021, dated 2025).

The subject of assay [1] is neutrophils (PMA-stimulated NETosis). The experiment in a line: Quantification of NETosis using SYTOX Green. The following applies: for IC50: Homo sapiens, Neutrophil, NETosis, SYTOX Green-stained neutrophils, PMA-stimulated; for 5 uM (% NETosis): compound at 5 uM, NET-forming cells as percentage of total cells, vehicle 79.66, untreated 14.54. Format: cell-based, human. The source says: Semi-automated analysis of both phase and fluorescence images of SYTOX Green-stained neutrophils used a MATLAB algorithm. Total cells were counted by scoring phase standard deviation and radial symmetry. NETosis was classified in cells by measuring the DNA area in the fluorescence image and comparing with a select internal training set for each experiment. Unstimulated cells and PMA-stimulated, pyocyanin-inhibited cells served as negative controls. PMA-stimulated cells served as a positive control. NET-forming cells are presented as a percentage of total cells.

For assay [2], the system named is neutrophils (PMA-stimulated ROS). The experiment in a line: ROS detection assay (ROS-Glo, H2O2). Format: cell-based. The conditions noted are these: Neutrophil; human neutrophils, 30 min preincubation, 50 nM PMA for 30 min. On the procedure: ROS were measured in neutrophils using the ROS-Glo bioluminescent assay (Promega) for the direct detection of H2O2. Neutrophils were isolated from fresh human blood using a biphasic Histopaque gradient as described here. Cells (100 uL per well) were plated in 96-well plates at a density of 200,000 cells/mL in high glucose DMEM medium. Cells were preincubated with either DMSO vehicle or compounds (10-point dilution curve starting at 2 uM with 3-fold serial dilution) for 30 min, and then stimulated with 50 nM PMA for 30 min. Luminescence, after the addition of H2O2 substrate solution for 20 min, and then ROS-Glo detection solution for 20 min, was recorded on a luminescence plate reader. The fifty percent inhibitory concentration (IC50) was determined with GraphPad Prism by plotting the assay output (RLU) versus the logarithm of the compound concentration using a non-linear sigmoid with variable slope algorithm with the default curve-fitting parameters in the Prism software.

The target in assay [3] is T1, phosphofructokinase-1 liver type (PFKL) (Homo sapiens, UniProt P17858).
T1 sequence (P17858 1-780): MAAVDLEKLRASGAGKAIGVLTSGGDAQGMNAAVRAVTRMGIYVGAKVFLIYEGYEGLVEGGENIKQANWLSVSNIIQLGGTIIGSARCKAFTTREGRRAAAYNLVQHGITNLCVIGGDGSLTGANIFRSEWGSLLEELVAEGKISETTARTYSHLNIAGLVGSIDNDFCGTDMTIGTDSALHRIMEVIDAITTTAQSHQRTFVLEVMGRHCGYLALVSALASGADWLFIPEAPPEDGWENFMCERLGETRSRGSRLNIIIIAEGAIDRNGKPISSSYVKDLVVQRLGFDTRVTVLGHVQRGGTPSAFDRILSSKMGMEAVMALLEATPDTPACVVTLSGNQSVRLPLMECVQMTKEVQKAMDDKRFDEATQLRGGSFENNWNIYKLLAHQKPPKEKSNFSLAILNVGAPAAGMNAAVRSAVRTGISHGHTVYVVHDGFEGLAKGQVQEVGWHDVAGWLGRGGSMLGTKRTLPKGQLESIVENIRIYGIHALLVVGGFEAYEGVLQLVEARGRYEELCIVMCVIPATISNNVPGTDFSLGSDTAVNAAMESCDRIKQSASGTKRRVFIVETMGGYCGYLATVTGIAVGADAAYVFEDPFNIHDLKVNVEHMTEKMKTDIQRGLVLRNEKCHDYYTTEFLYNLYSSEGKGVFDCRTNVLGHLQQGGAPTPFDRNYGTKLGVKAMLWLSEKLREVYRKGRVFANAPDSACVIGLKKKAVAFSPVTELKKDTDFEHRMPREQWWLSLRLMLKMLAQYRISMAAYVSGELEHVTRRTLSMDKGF
The experiment in a line: PFKL activation. Format: biochemical.

The target of assay [4] is T2, phosphofructokinase-1 platelet type (PFKP) (Homo sapiens, UniProt Q01813).
T2 sequence (Q01813 1-784): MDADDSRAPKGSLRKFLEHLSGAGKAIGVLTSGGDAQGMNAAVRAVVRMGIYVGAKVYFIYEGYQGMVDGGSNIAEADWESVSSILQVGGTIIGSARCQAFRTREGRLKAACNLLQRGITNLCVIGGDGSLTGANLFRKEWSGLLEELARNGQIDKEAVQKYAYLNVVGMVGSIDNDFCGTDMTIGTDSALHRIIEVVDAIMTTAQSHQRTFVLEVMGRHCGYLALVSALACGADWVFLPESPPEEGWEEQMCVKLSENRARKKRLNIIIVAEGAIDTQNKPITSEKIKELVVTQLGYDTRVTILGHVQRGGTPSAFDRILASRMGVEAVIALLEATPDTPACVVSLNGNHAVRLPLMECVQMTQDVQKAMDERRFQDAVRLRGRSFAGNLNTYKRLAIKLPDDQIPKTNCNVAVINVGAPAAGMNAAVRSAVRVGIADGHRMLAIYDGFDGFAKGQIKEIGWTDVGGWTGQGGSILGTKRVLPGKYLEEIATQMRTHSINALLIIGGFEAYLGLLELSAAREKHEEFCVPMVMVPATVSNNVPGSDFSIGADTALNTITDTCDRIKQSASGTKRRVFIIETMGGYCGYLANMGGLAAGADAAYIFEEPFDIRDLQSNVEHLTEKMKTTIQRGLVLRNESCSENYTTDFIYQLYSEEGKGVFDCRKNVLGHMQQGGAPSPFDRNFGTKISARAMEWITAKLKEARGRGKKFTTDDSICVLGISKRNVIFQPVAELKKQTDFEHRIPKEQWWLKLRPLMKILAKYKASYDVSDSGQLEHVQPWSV
The experiment in a line: PFKP activation. Format: biochemical.

Assay [5] has as its target T3, phosphofructokinase-1 muscle type (PFKM) (Homo sapiens, UniProt P08237).
T3 sequence (P08237 1-780): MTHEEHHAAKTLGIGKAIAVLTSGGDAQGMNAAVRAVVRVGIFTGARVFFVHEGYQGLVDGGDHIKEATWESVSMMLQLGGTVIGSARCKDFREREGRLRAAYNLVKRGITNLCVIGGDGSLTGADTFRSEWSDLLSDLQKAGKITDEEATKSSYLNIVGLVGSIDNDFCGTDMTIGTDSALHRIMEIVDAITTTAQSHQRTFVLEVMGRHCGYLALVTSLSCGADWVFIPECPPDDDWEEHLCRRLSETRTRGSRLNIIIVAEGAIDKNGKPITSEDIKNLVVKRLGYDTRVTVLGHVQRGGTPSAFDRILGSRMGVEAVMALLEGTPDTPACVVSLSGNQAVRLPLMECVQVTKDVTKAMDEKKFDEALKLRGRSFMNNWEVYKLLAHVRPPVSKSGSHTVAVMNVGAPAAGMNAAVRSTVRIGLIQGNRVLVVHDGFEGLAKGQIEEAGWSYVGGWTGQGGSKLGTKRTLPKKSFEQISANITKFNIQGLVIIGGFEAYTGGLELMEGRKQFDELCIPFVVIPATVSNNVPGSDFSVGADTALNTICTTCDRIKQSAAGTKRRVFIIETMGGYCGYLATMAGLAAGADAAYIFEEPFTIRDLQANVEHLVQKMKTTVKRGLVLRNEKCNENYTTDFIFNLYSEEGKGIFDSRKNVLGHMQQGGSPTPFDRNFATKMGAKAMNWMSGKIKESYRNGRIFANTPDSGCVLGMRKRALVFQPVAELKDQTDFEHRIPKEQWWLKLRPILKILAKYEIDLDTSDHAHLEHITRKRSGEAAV
The experiment in a line: PFKM activation. Format: biochemical.

The test system of assay [6] is NOX2-dependent oxidative burst in neutrophils. The experiment in a line: NOX2-dependent oxidative burst in neutrophils. Format: cell-based.

Bounds are passed on as bounds.

The term IC50 denotes the concentration that gives 50% inhibition. For the molecule `CC(=O)Nc1ccc2c(c1)OCc1cc(-c3ccccc3)nn1C2` [Example 1, N-(2-Phenyl-4H,10H-benzo[f]pyrazolo[5,1-c][1,4]oxazepin-7-yl)acetamide], in assay [1], the IC50 was 0.19 ± 0.03 µM and the “5 uM (% NETosis)” value was 37.78%. In assay [2], the IC50 turned out to be 0.093 µM.

Regarding `CC(=O)Nc1ccc2c(c1)OCc1cc(-c3ccccc3C#CCCCO)nn1C2` [Example 6, N-(2-(2-(5-hydroxypent-1-yn-1-yl)phenyl)-4H,10H-benzo[f]pyrazolo[5,1-c][1,4]oxazepin-7-yl)acetamide], the IC50 in assay [1] was determined as 0.004 ± 0.0005 µM; in assay [2] it was 0.026 µM. Moreover, the “5 uM (% NETosis)” value in assay [1] came out at 58.67%. The “NETosis (qualitative)” value in assay [1] (polymorphonuclear leukocytes, FIG. 1) is recorded as “inhibit NETosis”. In assay [3], the “agonism/activation of PFKL” value was “activating”. For the same molecule, in assay [4], the “agonism of PFKP” value is given as “failed to agonize”. Moreover, the “agonism of PFKM” value in assay [5] is listed as “failed to agonize”. Moreover, the NOX2-dependent oxidative burst entry in assay [6] is listed as “inhibit”.

In the case of `c1ccc(-c2cc3n(n2)Cc2ccc(Nc4cn[nH]c4)cc2OC3)cc1` [Example 19], in assay [1], the “5 uM (% NETosis)” value is recorded as 62.75%. In assay [2], this molecule displayed an IC50 of more than 20 µM.

Consider `Cc1cc(Nc2ccc3c(c2)OCc2cc(-c4ccccc4)nn2C3)[nH]n1` [Example 33], for which the “5 uM (% NETosis)” value in assay [1] is given as 69.42%. The molecule also registered an IC50 in assay [2] of more than 20 µM.

For `c1ccc(-c2cc3n(n2)Cc2ccc(Nc4ccn[nH]4)cc2OC3)cc1` [Example 36], the “5 uM (% NETosis)” value in assay [1] was 46.06%. The IC50 in assay [2] was 1.4 µM.

With `N#CCNc1ccc2c(c1)OCc1cc(-c3ccccc3)nn1C2` [Example 39], in assay [1], the “5 uM (% NETosis)” value is 52.08%. The molecule further came in with an IC50 in assay [2] of 0.51 µM.

Take `CC(=O)Nc1ccc2c(c1)OCc1cc(-c3cncs3)nn1C2` [Example 54]: the “5 uM (% NETosis)” value in assay [1] was found to be 37.45%. This molecule also displayed an IC50 in assay [2] of more than 20 µM.

With `CC(=O)Nc1ccc2c(c1)OCc1cc(-c3ccccc3F)nn1C2` [Example 55], the “5 uM (% NETosis)” value in assay [1] is recorded as 36.33%. This molecule displayed a half-maximal inhibitory concentration (IC50) in assay [2] of 0.046 µM.

Take `CC(=O)Nc1ccc2c(c1)OCc1cc(-c3cc(C)nn3C)nn1C2` [Example 58]: the “5 uM (% NETosis)” value in assay [1] was 53.96%. This molecule showed an IC50 in assay [2] of 2.44 µM.

For the molecule `CC(=O)Nc1ccc2c(c1)OCc1cc(-c3cnn(C(F)F)c3)nn1C2` [Example 67, N-(2-(1-(difluoromethyl)-1H-pyrazol-4-yl)-4H,10H-benzo[f]pyrazolo[5,1-c][1,4]oxazepin-7-yl)acetamide], the “5 uM (% NETosis)” value in assay [1] came out at 39.88%. The IC50 in assay [2] was found to be 0.192 µM.

Regarding `CC(=O)Nc1ccc2c(c1)OCc1cc(-c3ccncc3C)nn1C2` [Example 68], the “5 uM (% NETosis)” value in assay [1] is recorded as 43.49%. In assay [2], this molecule gave an IC50 of 0.233 µM.

`CC(=O)Nc1ccc2c(c1)OCc1cc(-c3cnn(CF)c3)nn1C2` [Example 117]: in assay [2], the midpoint of inhibition, the IC50, lay at 0.204 µM.

The molecule `CC(=O)Nc1ccc2c(c1)OCc1cc(-c3c[nH]nc3C3CC3)nn1C2` [Example 118] yielded an IC50 in assay [2] of more than 20 µM.

The molecule `CC(=O)Nc1ccc2c(c1)OCc1cc(-c3cnn(C4COC4)c3)nn1C2` [Example 119] showed an IC50 in assay [2] of 0.714 µM. In other words, the sub-micromolar range.

`CC(=O)Nc1ccc2c(c1)OCc1cc(-c3cnn(CC(C)C)c3)nn1C2` [Example 120]: it took 0.346 µM to reach half-maximal inhibition in assay [2] (IC50).

`CC(=O)Nc1ccc2c(c1)OCc1cc(-c3cnn(C)c3C)nn1C2` [Example 121] registered an IC50 in assay [2] of 0.836 µM.

As to `CC(=O)Nc1ccc2c(c1)OCc1cc(-c3cnn4c3CCC4)nn1C2` [Example 122], in assay [2], inhibition was half-maximal at 1.2 µM (IC50).

In assay [2], `CC(=O)Nc1ccc2c(c1)OCc1cc(-c3ccncc3)nn1C2` [Example 124] had an IC50 of 0.41 µM.

In turn, `CC(=O)Nc1ccc2c(c1)OCc1cc(-c3cnn(C(F)(F)F)c3)nn1C2` [Example 125, N-(2-(1-(trifluoromethyl)-1H-pyrazol-4-yl)-4H,10H-benzo[f]pyrazolo[5,1-c][1,4]oxazepin-7-yl)acetamide] returned an IC50 in assay [2] of 0.056 µM.

`CC(=O)Nc1ccc2c(c1)OCc1cc(-c3ccnc(C)c3)nn1C2` [Example 126] displayed an IC50 in assay [2] of 0.529 µM. This IC50 is about 9.4-fold higher than that of the molecule before.

In assay [2], `CC(=O)Nc1ccc2c(c1)OCc1cc(-c3cccnc3)nn1C2` [Example 127] came in with an IC50 of 1.36 µM.

Consider `CC(=O)Nc1ccc2c(c1)OCc1cc(-c3cncnc3)nn1C2` [Example 128], for which the half-maximal inhibitory concentration (IC50) in assay [2] came to 3.1 µM.

For the molecule `CC(=O)Nc1ccc2c(c1)OCc1cc(-c3ccncc3F)nn1C2` [Example 129], half-maximal inhibition in assay [2] (IC50) required 0.903 µM.
